Test results reported in patent US20130274246A1, “Therapeutic Treatment for Metabolic Syndrome, Type 2 Diabetes, Obesity, or Prediabetes” (priority 2010, published 2013).

How the values were obtained:
Format in all cases: in vivo
[1] = system: male mice fed a high fat diet; assay: GBR versus bupropion in high fat diet mice (Example 11)
Description: The effect of increasing central dopamine neuronal activity versus increasing central dopamine plus norepinephirne neuronal activity on body fat, blood glucose, plasma insulin, and insulin sensitivity was studied in male mice fed a high fat diet from 4 weeks of age until 24 weeks of age. These mice were maintained on this high fat diet while treated with either GBR (20 mg/kg) (a selective dopamine reuptake inhibitor) or bupropion (20 mg/kg) (a dopamine and norepinpehrine reuptake inhibitor) at doses that approximate their 50% maximal effective dose for these functions in vivo in rodents.

[2] = system: female mice fed a high fat diet for 20 weeks; assay: GBR 12909 and FA, alone and combined, 14 days in high fat diet mice (Example 9); conditions: GBR 12909 10 mg/kg, FA 15 mg/kg, FIG. 11
Description: Female mice at 4 weeks of age were fed a high fat diet for 20 weeks to induce diabetes and insulin resistance and continued on such diet while treated for 14 days with either GBR 12909 (10 mg/kg), FA (15 mg/kg), GBR 12909 (10 mg/kg) plus FA (15 mg/kg), or vehicle and sacrified after 14 days of treatment for the analyses of body fat, blood glucose, plasma insulin, and plasma nitric oxide levels. The composite of body fat store level, blood glucose and plasma insulin was reduced the greatest in the GBR/FA group and by a magnitude more than additive of the individual GBR and FA groups combined. Only the GBR/FA group normalized plasma insulin levels. […] This effect was not observed with either GBR or FA treatments alone. Also, there was no desensitization to this dopamine enhancing treatment on this body weight reduction effect as is observed with dopamine D2 receptor agonists (FIG. 15).

[3] = system: obese, diabetic female ob/ob mice; assay: Fusaric acid and SKF 38393, alone and combined, 14 days in ob/ob mice (Example 4); conditions: fusaric acid 15 mg/kg, SKF 38393 10 mg/kg, once daily 14 days, day 15, controls 380+/−30
Description: Fusaric acid is a dopamine beta hydroxylase inhibitor that reduces noradrenaline synthesis in noradrenergic neurons. It is not present in dopaminergic neurons and thus exerts no such effect there. SKF38393 is a post-synaptic dopamine D1 receptor agonist with no marked influence on noradrenergic neurons. A study was conducted to determine the interactive effects of fusaric acid plus SKF 38393 on body fat store levels, and blood glucose and plasma triglyceride levels in ob/ob mice. The ob/ob mouse is hyperphagic, obese, insulin resistant, diabeteic and dyslipidemic due to the absence of functional leptin as a result of a mutation in this gene.
Obese, diabetic female ob/ob mice (body weight of approximately 33 g) maintained on 14 hour daily photoperiods, housed one per cage and allowed to feed ad libitum were randomized to once daily treatment with either fusaric acid (15 mg/kg; n=6-8), SKF 38393 (10 mg/kg; n=6-8), both fusaric acid (15 mg/kg) and SKF 38393 (10 mg/kg) (n=6-8), or vehicle (control group; n=6-8) for a 14 day period. On the fifteenth day of the study and approximately 24 hours after the final treatment animals were sacrificed and blood samples were obtained for the analyses of blood glucose, plasma free fatty acid and triglyceride levels. […]

[4] = system: high fat fed, hypertensive SHR rats; assay: Quinelorane and fusaric acid, alone and combined, in high fat fed hypertensive SHR rats (Example 5); conditions: SHR rats on high fat diet, Q 0.075 mg/kg, FA 12.5 mg/kg
Description: Male SHR rats were maintained on 14 hour daily photoperiods and fed a high fat diet (60% of energy from fat; 5.24 kcal/gram weight) for 3 weeks and then divided into different groups and treated with either quinelorane (Q; a dopamine D2/D3 mixed receptor agonist) (0.075 mg/kg), fusaric acid (FA; a dopamine beta hydroxylase inhibitor) (12.5 mg/kg), quinelorane (0.075 mg/kg) plus FA (Q/FA) (12.5 mg/kg), or vehicle at 13 hours after light onset for 17 days. The doses of Q and FA were set at less than half maximal to effect central dopamine receptor binding functions and dopamine beta hydroxylase activity, respectively. […] Blood pressure measurements were taken at 14 days of treatment and animals were sacrificed at 18 days of treatment for analyses of body fat and humoral factors and metabolites. […] Respecting blood glucose, although both Q and FA reduced glucose level relative to vehicle, only the Q/FA regimen normalized blood glucose in these animals relative to vehicle (FIG. 6).

## Cl.Cl.Fc1ccc(C(OCCN2CCN(CCCc3ccccc3)CC2)c2ccc(F)cc2)cc1 [GBR 12909, 1-(2-[bis(4-Fluorophenyl)methoxy]ethyl)-4-(3-phenylpropyl)piperazine dihydrochloride]
[1]; GBR 20 mg/kg versus bupropion 20 mg/kg, equal dose
  reducing plasma insulin: much more effective
[1]; GBR 20 mg/kg, compared to vehicle and bupropion 20 mg/kg, FIG. 17
  body fat: significantly reduced
[2]
  blood glucose level: no significant effect

## Cl.Oc1cc2c(cc1O)C(c1ccccc1)CNCC2 (stereo not drawn) [SKF 38393, 1-phenyl-7,8-dihydroxy-2,3,4,5-tetrahydro-1H-3-benzazepine hydrochloride]
[3]
  blood glucose: 290 ± 55 mg/dL

## CCCN1CCC[C@@H]2Cc3nc(N)ncc3C[C@H]21 [Q]
[4]; at 13 hours after light onset for 17 days, FIGS. 1 and 2
  change from baseline body weight (weight loss): regained weight loss to baseline values by treatment end

## CCCCc1ccc(C(=O)O)nc1 [fusaric acid, 5-butyl-2-pyridinecarboxylic acid]
[4]; 17 days, relative to vehicle
  plasma C-reactive protein levels: no significant effect
